Results: ChEMBL document CHEMBL3351466 (Bioorg Med Chem Lett, 2014)

How the values were obtained:
[1] = target: T1, Transient receptor potential cation channel subfamily V member 1 (Homo sapiens, UniProt Q8NER1); assay: Antagonist activity at human TRPV1 expressed in CHO cells assessed as inhibition of capsaicin-induced increase in intracellular Ca2+ level by FLIPR assay; type: cell-based
Mus musculus [2] = assay: Inhibition of capsaicin-induced hypothermia in NMRI mouse compound at 0.1 mg/kg, po administered 15 mins prior challenge measured 30 mins post challenge; type: functional
[3] = target: T1, Transient receptor potential cation channel subfamily V member 1; assay: Antagonist activity at human TRPV1 expressed in CHO cells assessed as inhibition of N-arachidonoyl dopamine-induced increase in intracellular Ca2+ level by FLIPR assay; type: cell-based
Mus musculus [4] = assay: Inhibition of capsaicin-induced hypothermia in NMRI mouse compound at 0.3 mg/kg, po administered 15 mins prior challenge measured 30 mins post challenge; type: functional
Mus musculus [5] = assay: Inhibition of capsaicin-induced hypothermia in NMRI mouse compound administered orally 15 mins prior challenge measured 30 mins post challenge; type: functional, organism-based
Rattus norvegicus [6] = assay: Analgesic activity in rat Bennett model for neuropathic pain at 1 mg/kg, po; type: functional
[7] = target: T1, Transient receptor potential cation channel subfamily V member 1; assay: Antagonist activity at human TRPV1 expressed in CHO cells assessed as inhibition of heat-induced increase in intracellular Ca2+ level by FLIPR assay; type: cell-based
Rattus norvegicus [8] = assay: Analgesic activity in orally dosed rat Bennett model for neuropathic pain; type: functional, organism-based
Rattus norvegicus [9] = assay: Analgesic activity in rat Bennett model for neuropathic pain at 0.1 mg/kg, po; type: functional
Rattus norvegicus [10] = assay: Analgesic activity in rat Bennett model for neuropathic pain […]; type: functional

T1 sequence (Q8NER1 whole entry): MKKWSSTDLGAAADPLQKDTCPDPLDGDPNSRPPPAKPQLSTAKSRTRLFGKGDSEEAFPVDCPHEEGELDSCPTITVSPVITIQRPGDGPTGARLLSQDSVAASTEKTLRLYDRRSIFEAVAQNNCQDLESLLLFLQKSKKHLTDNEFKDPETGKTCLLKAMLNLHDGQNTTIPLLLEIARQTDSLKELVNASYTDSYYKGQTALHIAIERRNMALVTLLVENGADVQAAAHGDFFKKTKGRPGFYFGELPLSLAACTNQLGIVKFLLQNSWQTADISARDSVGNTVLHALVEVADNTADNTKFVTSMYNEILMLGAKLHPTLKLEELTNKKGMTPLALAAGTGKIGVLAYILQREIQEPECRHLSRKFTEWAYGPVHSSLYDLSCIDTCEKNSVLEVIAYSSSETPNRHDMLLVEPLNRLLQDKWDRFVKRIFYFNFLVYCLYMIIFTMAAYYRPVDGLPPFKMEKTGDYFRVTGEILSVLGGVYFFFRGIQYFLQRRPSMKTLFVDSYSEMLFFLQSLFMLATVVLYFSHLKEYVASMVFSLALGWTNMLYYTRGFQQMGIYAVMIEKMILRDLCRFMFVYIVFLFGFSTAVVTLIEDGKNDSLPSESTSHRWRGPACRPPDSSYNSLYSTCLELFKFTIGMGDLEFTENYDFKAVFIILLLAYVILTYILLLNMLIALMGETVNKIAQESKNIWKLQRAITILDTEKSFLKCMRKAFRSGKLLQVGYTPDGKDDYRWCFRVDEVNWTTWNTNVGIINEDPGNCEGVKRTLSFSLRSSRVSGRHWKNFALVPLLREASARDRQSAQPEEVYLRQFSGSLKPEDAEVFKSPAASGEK

| Structure (SMILES) | Ki [1] | further results |
| --- | --- | --- |
| CCC1CCC(c2nc(C(F)(F)F)ccc2CNC(=O)[C@@H](C)c2ccc(NS(C)(=O)=O)c(F)c2)CC1 (stereo partly drawn) | 0.2 nM | – |
| CCCc1nc(C(F)(F)F)ccc1CNC(=O)C(C)c1ccc(NS(C)(=O)=O)c(F)c1 (stereo not drawn) | 22.7 nM | – |
| CC1CCC(c2nc(C(F)(F)F)ccc2CNC(=O)C(C)c2ccc(NS(C)(=O)=O)c(F)c2)CC1 (stereo not drawn) | 0.4 nM | – |
| C[C@H](C(=O)NCc1ccc(C(F)(F)F)nc1C1CCC(C)(C)CC1)c1ccc(NS(C)(=O)=O)c(F)c1 | 0.3 nM | – |
| CC(C(=O)NCc1ccc(C(F)(F)F)nc1C1CCCCC1)c1ccc(NS(C)(=O)=O)c(F)c1 (stereo not drawn) | – | inhibition in vivo at 0.1 mg/kg (Mus musculus [2]): 24%; Ki [3]: 0.2 nM; inhibition in vivo at 0.3 mg/kg (Mus musculus [4]): 78%; inhibition (Mus musculus [5]): Dose-dependent effect; %max (Rattus norvegicus [6]): 53%; IC50 [7]: 14.1 nM; Activity (Rattus norvegicus [8]): Dose-dependent effect; %max (Rattus norvegicus [9]): 25% |
| CC(C)C[C@H](CN)CC(=O)O [PREGABALIN] | – | ED50 (Rattus norvegicus [10]): 42.2 mg/kg |
| CC(C(=O)NCc1ccc(C(F)(F)F)nc1[C@H]1CC[C@H](C(C)(C)C)CC1)c1ccc(NS(C)(=O)=O)c(F)c1 (stereo partly drawn) | 0.3 nM | – |
| CCC1CCC(c2nc(C(F)(F)F)ccc2CNC(=O)C(C)c2ccc(NS(C)(=O)=O)c(F)c2)CC1 (racemic) | 0.3 nM | – |
| C[C@H](C(=O)NCc1ccc(C(F)(F)F)nc1C1=CCC(C)(C)CC1)c1ccc(NS(C)(=O)=O)c(F)c1 | 0.1 nM | – |
| C[C@H](C(=O)NCc1ccc(C(F)(F)F)nc1C1CCCCC1)c1ccc(NS(C)(=O)=O)c(F)c1 | 0.3 nM | – |
| CC(C(=O)NCc1ccc(C(F)(F)F)nc1C1CCC(C)(C)CC1)c1ccc(NS(C)(=O)=O)c(F)c1 (racemic) | 0.4 nM | – |
| CC(C(=O)NCc1ccc(C(F)(F)F)nc1C1CC2CCC1C2)c1ccc(NS(C)(=O)=O)c(F)c1 (racemic) | 1.5 nM | – |
| C[C@H](C(=O)NCc1ccc(C(F)(F)F)nc1C1=CCC(C(C)(C)C)CC1)c1ccc(NS(C)(=O)=O)c(F)c1 (stereo partly drawn) | 0.1 nM | – |
| CC(C(=O)NCc1ccc(C(F)(F)F)nc1[C@H]1CC[C@@H](C(C)(C)C)CC1)c1ccc(NS(C)(=O)=O)c(F)c1 (stereo partly drawn) | 1.3 nM | – |
| C[C@H](C(=O)NCc1ccc(C(F)(F)F)nc1C1CC2CCC1C2)c1ccc(NS(C)(=O)=O)c(F)c1 (stereo partly drawn) | 0.8 nM | – |
| CC1C=C(c2nc(C(F)(F)F)ccc2CNC(=O)C(C)c2ccc(NS(C)(=O)=O)c(F)c2)CCC1 (stereo not drawn) | 0.2 nM | – |
| CC(C(=O)NCc1ccc(C(F)(F)F)nc1C1CCC(F)(F)CC1)c1ccc(NS(C)(=O)=O)c(F)c1 (stereo not drawn) | 1.5 nM | – |
| CC(C(=O)NCc1ccc(C(F)(F)F)nc1C1=CCC(C)(C)CC1)c1ccc(NS(C)(=O)=O)c(F)c1 (racemic) | 0.2 nM | – |
| CC1CC=C(c2nc(C(F)(F)F)ccc2CNC(=O)[C@@H](C)c2ccc(NS(C)(=O)=O)c(F)c2)CC1 (stereo partly drawn) | 0.2 nM | – |
| CC(C(=O)NCc1ccc(C(F)(F)F)nc1C1=CCC(C(C)(C)C)CC1)c1ccc(NS(C)(=O)=O)c(F)c1 (racemic) | 0.2 nM | – |
| CC(C(=O)NCc1ccc(C(F)(F)F)nc1C1CCC(C(C)(C)C)CC1)c1ccc(NS(C)(=O)=O)c(F)c1 (stereo not drawn) | 0.3 nM | – |
